Converted amounts (≈) assume the structure as drawn. Where two headings read alike, the source gives them in different places.
What was measured:
[1] = tested on: human cervical carcinoma cell line KB/HeLa; assay: XTT proliferation assay, KB/HeLa; assay type: cell-based; conditions: KB/HeLa cells, 45 h incubation
Text: (§1) The substances according to the invention were investigated for their antiproliferative activity in a proliferation test on established tumor cell lines. The test used determines the cellular dehydrogenase activity and makes possible a determination of the cell vitality and indirectly the cell count. The cell lines used are the human cervical carcinoma cell line KB/HeLa, (ATCC CCL17), the ovarian adenocarcinoma cell line SKOV-3 (ATCC HTB77), the human glioblastoma cell line SF-268 (NCI 503138) and the lung carcinoma cell line NCI-H460 (NCI 503473). In addition, for the investigation of the cell cycle-specific action of the substance, an RKOp27 cell system was used (M. Schmidt et al. Oncogene 19(20):2423-9, 2000). RKO is a human colon carcinoma cell line, in which the cell cycle inhibitor p27^kip1 induced by means of the ecdysone expression system is expressed and can be led to a cell cycle arrest specifically in […]. A nonspecifically acting substance inhibits the proliferation independently of weather the RKO cell is or is not arrested in G1 or G2. Cell cycle-specific substances such as, for example, tubulin inhibitors are, however, only cytotoxic if cells are not arrested and the cell cycle is passed through. In table 1, the cytotoxic and/or growth-inhibiting activities of the compound described with/without expression of p27^kip1 are shown.
(§2) The adherently growing tumor cell lines KB/HeLa, SKOV-3, SF-268 and NCI-H460 were cultured under standard conditions in a fumigation incubator at 37° C., 5% CO2 and 95% atmospheric humidity. On experimental day 1, the cells are detached using trypsin/EDTA and pelleted by centrifugation. Subsequently, the cell pellet is resuspended in the respective culture medium at the corresponding cell count and reacted in a 96-well microtiter plate. The plates are then cultured overnight in the fumigation incubator. The test substances are prepared as 1 mg/ml stock solutions in DMSO and diluted to the appropriate concentrations on experimental day 2 using culture medium. The substances in culture medium are then added to the cells and incubated in the fumigation incubator for 45h. As a control, cells which are not treated with test substance are used. For the XTT assay, 1 mg/ml of XTT (sodium 3′-[1-(phenylaminocarbonyl)-3,4-tetrazolium]-bis(4-methoxy-6-nitro)benzenesulfonic acid) is dissolved in RPMI-1640 medium without Phenol Red. Additionally, a 0.383 mg/ml PMS (N-methyldibenzopyrazine methylsulfate) solution in phosphate-buffered saline solution (PBS) is prepared. On experimental day 4, 75 μl/well of XTT-PMS mixture is pipetted onto the cell plates which in the meantime have been incubated with the test substances for 45 h. For this, shortly before use, the XTT solution is mixed with the PMS solution in the ratio 50:1 (vol:vol). The cell plates are then incubated in the fumigation incubator for a further 3h and the optical density (OD490nm) is determined in a photometer. By means of the OD490nm determined, the percentage inhibition is calculated relative to the control and plotted semilogarithmically in the form of a concentration-action curve. The EC50 is calculated by means of a regression analysis from the concentration-action curve using the program Graphpad Prism.

[2] = tested on: ovarian adenocarcinoma cell line SKOV-3; assay: XTT proliferation assay, SKOV-3; assay type: cell-based; conditions: Homo sapiens, SK-OV-3; SKOV-3 cells, 45 h incubation; read-out: XTT proliferation assay, EC50, SKOV3
Text: as §1, §2

[3] = tested on: human glioblastoma cell line SF-268; assay: XTT proliferation assay, SF-268; assay type: cell-based; conditions: SF-268 cells, 45 h incubation
Text: as §1, §2

[4] = tested on: lung carcinoma cell line NCI-H460; assay: XTT proliferation assay, NCI-H460; assay type: cell-based; conditions: Homo sapiens; NCI-H460 cells, 45 h incubation
Text: as §1, §2

[5] = tested on: RKOp27 human colon carcinoma cell line; assay: Cell cycle analysis by means of the RKOp27 model (XTT); assay type: cell-based; conditions: RKOp27, 45 h, RKOp27 cells, read-out: XTT proliferation assay, EC50, RKOP27
Text: as §1, §2
The assay is carried out in 96-well plates. […] By comparison of the activity on induced and noninduced cells, conclusions on the mechanism of action (cell cycle specificity) of the therapeutics can be drawn. […] are inoculated in approximately three-fold higher cell count, since division no longer takes place during the assay in comparison with uninduced cells (20000 cells/well induced, 6250 cells/well not induced). The controls are untreated cells (+/−induction). The induction is carried out with 3 μM muristerone A On the 1st day, the cells are exposed (+/− muristerone A) and incubated at 37° C. for 24h. […]

bovine tubulin = assay: Tubulin polymerization assay; assay type: biochemical; conditions: average of two independent experiments; for Inhibition of tubulin polymerization, EC50, without MAPs: MAP-free bovine tubulin; for Inhibition of tubulin polymerization, EC50, with 30% MAPs: bovine tubulin with 30% MAPs
Procedure: Selected substances were tested for inhibition of the polymerization of bovine tubulin in an in-vitro test. In this test, tubulin purified by cycles of polymerization and depolymerization is employed, which is polymerized by addition of GTP and warming. In Table 2, the EC50 values of the inhibition of polymerization of tubulin with 30% associated proteins (MAPs) and of MAP-free tubulin are indicated.
The assay is carried out based on the method of Bollag et. al. Lyophilized bovine tubulin (cytoskeleton, ML113 tubulin 30% MAPs, TL238 tubulin MAP free) is dissolved in a concentration of 2 mg/ml (ML113 in 80 mM PIPES, 0.5 mM EGTA, 2 mM MgCl2, pH6.9, 1 mM GTP) or 5 mg/ml (TL238 in 80 mM PIPES, 1 mM EGTA, 0.5 mM MgCl2, 20% (v:v) glycerol pH 6.9, 1 mM GTP). The test substances are diluted in 10% DMSO (v:v) and 5 μl of the dilutions are transferred to a 96-well microtiter plate (Nunc, half area plate). After addition of 45 μl of the tubulin solution, the polymerization is determined at 340 nm in a Spectramax 190 microtiter plate reader (Molecular devices) by means of a kinetics program at 30 sec intervals over a period of 20 min. The resulting area under curve values are used for the calculation of the inhibition with respect to the untreated control and plotted semilogarithmically in the form of a concentration-action curve. The EC50 is calculated by means of a regression analysis from the concentration-action curve using the program Graphpad Prism.

[6] = p27kip1 induced with 3 μM muristerone A (arrested)
[7] = without expression of p27kip1 (not induced)

EC50 [1] [µg/mL] | EC50 [2] [µg/mL] | EC50 [3] [µg/mL] | EC50 [4] [µg/mL] | EC50 [5, 6] [µg/mL] | EC50 [5, 7] [µg/mL] | Inhibition of tubulin polymerization, EC50, without MAPs (bovine tubulin) [µg/mL] | Inhibition of tubulin polymerization, EC50, with 30% MAPs (bovine tubulin) [µg/mL] | melting point [°C] | SMILES
0.628 (≈ 1.57 µM) | 0.293 (≈ 0.732 µM) | 0.408 (≈ 1.02 µM) | 0.29 (≈ 0.724 µM) | > 3.16 | 0.193 (≈ 0.482 µM) | – | 0.73 | 110 | COc1cccc(N2CCN(C(=O)C3c4ccccc4Oc4ccccc43)CC2)c1 [Compound 13, [4-(3-Methoxyphenyl)piperazin-1-yl]-(9H-xanthen-9-yl)methanone]
0.08 (≈ 0.186 µM) | 0.029 (≈ 0.0674 µM) | 0.075 (≈ 0.174 µM) | 0.064 (≈ 0.149 µM) | > 3.16 | 0.058 (≈ 0.135 µM) | 1.71 | 1.16 | – | COc1cc(OC)cc(N2CCN(C(=O)C3c4ccccc4Oc4ccccc43)CC2)c1 [Compound 12, [4-(3,5-Dimethoxyphenyl)piperazin-1-yl]-(9H-xanthen-9-yl)methanone]
– | – | – | – | – | – | – | – | 124 | COc1cccc(N2CCN(C(=O)c3cccc4c3Cc3ccccc3-4)CC2)c1 [Compound 11, (9H-Fluoren-1-yl)-[4-(3-methoxyphenyl)piperazin-1-yl]methanone]
0.147 (≈ 0.422 µM) | 0.082 (≈ 0.235 µM) | 0.1 (≈ 0.287 µM) | 0.087 (≈ 0.25 µM) | > 3.16 | 0.064 (≈ 0.184 µM) | – | 4.20 | – | O=C(c1ccnn1-c1ccccc1)N1CCN(c2cccc(O)c2)CC1 [Compound 16, [4-(3-Hydroxyphenyl)piperazin-1-yl]-(2-phenyl-2H-pyrazol-3-yl)methanone]
0.012 (≈ 0.0331 µM) | 0.008 (≈ 0.0221 µM) | 0.009 (≈ 0.0248 µM) | 0.005 (≈ 0.0138 µM) | > 3.16 | 0.006 (≈ 0.0166 µM) | – | 0.46 | – | COc1cccc(N2CCN(C(=O)c3ccnn3-c3ccccc3)CC2)c1 [Compound 14, [4-(3-Methoxyphenyl)piperazin-1-yl]-(2-phenyl-2H-pyrazol-3-yl)methanone]
0.04 (≈ 0.115 µM) | 0.018 (≈ 0.0518 µM) | 0.036 (≈ 0.104 µM) | 0.024 (≈ 0.0691 µM) | > 3.16 | 0.022 (≈ 0.0633 µM) | – | 0.88 | – | Cc1cccc(N2CCN(C(=O)c3ccnn3-c3ccccc3)CC2)n1 [Compound 15, [4-(6-Methylpyridin-2-yl)piperazin-1-yl]-(2-phenyl-2H-pyrazol-3-yl)methanone]

Further lines, the compound ahead of its results:

SMILES | EC50 [1] [µg/mL] | EC50 [2] [µg/mL] | EC50 [3] [µg/mL] | EC50 [4] [µg/mL] | EC50 [5, 6] [µg/mL] | EC50 [5, 7] [µg/mL] | Inhibition of tubulin polymerization, EC50, without MAPs (bovine tubulin) [µg/mL] | Inhibition of tubulin polymerization, EC50, with 30% MAPs (bovine tubulin) [µg/mL] | melting point [°C]
COc1cc(OC)cc(N2CCN(C(=O)c3cccc4c3-c3ccccc3C4=O)CC2)c1 [Compound 1, 4-[4-(3,5-Dimethoxyphenyl)piperazine-1-carbonyl]fluoren-9-one] | 0.555 (≈ 1.3 µM) | 0.4 (≈ 0.934 µM) | 0.309 (≈ 0.721 µM) | 0.312 (≈ 0.728 µM) | > 3.16 | 0.208 (≈ 0.485 µM) | 1.36 | 0.86 | –
CSc1nsc(SC)c1C(=O)N1CCN(c2cccc(C)n2)CC1 [Compound 7, (3,5-Bismethylsulfanylisothiazol-4-yl)-[4-(6-methylpyridin-2-yl)piperazin-1-yl]methanone] | 2.71 (≈ 7.12 µM) | 1.01 (≈ 2.65 µM) | – | 1.54 (≈ 4.05 µM) | > 3.16 | 1.2 (≈ 3.15 µM) | – | – | –
COc1cc(OC)cc(N2CCN(C(=O)c3cccc4c3Cc3ccccc3-4)CC2)c1 [Compound 9, [4-(3,5-Dimethoxyphenyl)piperazin-1-yl]-(9H-fluoren-1-yl)methanone] | 0.613 (≈ 1.48 µM) | 0.341 (≈ 0.823 µM) | 0.692 (≈ 1.67 µM) | 0.427 (≈ 1.03 µM) | > 3.16 | 0.217 (≈ 0.524 µM) | – | – | 148
COc1cc(OC)cc(N2CCN(C(=O)c3nccc4ccccc34)CC2)c1 [Compound 8, [4-(3,5-Dimethoxyphenyl)piperazin-1-yl]isoquinolin-1-ylmethanone] | 0.929 (≈ 2.46 µM) | 0.287 (≈ 0.76 µM) | 0.775 (≈ 2.05 µM) | 0.439 (≈ 1.16 µM) | > 3.16 | 0.291 (≈ 0.771 µM) | – | 5.66 | –
Cc1cccc(N2CCN(C(=O)c3cccc4c3-c3ccccc3C4=O)CC2)n1 [Compound 2, 4-[4-(6-Methylpyridin-2-yl)piperazine-1-carbonyl]fluoren-9-one] | 2.59 (≈ 6.76 µM) | 0.585 (≈ 1.53 µM) | 0.939 (≈ 2.45 µM) | 0.886 (≈ 2.31 µM) | > 3.16 | 0.326 (≈ 0.85 µM) | – | – | –
O=C1c2ccccc2-c2c1cccc2C(=O)N1CCN(c2cccc(O)c2)CC1 [Compound 3, 4-[4-(3-Hydroxyphenyl)piperazine-1-carbonyl]fluoren-9-one] | 4.32 (≈ 11.2 µM) | 0.397 (≈ 1.03 µM) | 0.478 (≈ 1.24 µM) | 0.853 (≈ 2.22 µM) | > 3.16 | 0.726 (≈ 1.89 µM) | – | 4.77 | –
Cc1cc(C)cc(N2CCN(C(=O)c3cnnc4ccccc34)CC2)c1 [Compound 5, Cinnolin-4-yl-[4-(3,5-dimethylphenyl)piperazin-1-yl]methanone] | 1.21 (≈ 3.5 µM) | 0.496 (≈ 1.43 µM) | 0.474 (≈ 1.37 µM) | 0.348 (≈ 1 µM) | > 3.16 | 0.25 (≈ 0.722 µM) | – | – | 114
COc1cccc(N2CCN(C(=O)C3c4ccccc4-c4ccccc43)CC2)c1 [Compound 10, (9H-Fluoren-9-yl)-[4-(3-methoxyphenyl)piperazin-1-yl]methanone] | 0.166 (≈ 0.432 µM) | 0.082 (≈ 0.213 µM) | 0.094 (≈ 0.244 µM) | 0.085 (≈ 0.221 µM) | > 3.16 | 0.082 (≈ 0.213 µM) | – | 1.18 | 162 to 163

Reference: patent US20040097734A1, “Aryl- and heteroarylcarbonylpiperazines and their use for the treatment of benign and malignant oncoses” (priority 2002, published 2004)
